Consider two compounds from article PMC12926044, “Nootropic benzothiazoles promote dendritic spine formation by targeting fascin-1” (The Journal of Biological Chemistry, 2025).

Like-named read-outs stand apart in the source and are kept apart here.

The target in the assay is T1, fascin-1 (Homo sapiens, UniProt Q16658).
T1 construct: gene FSCN1; recombinant, E. coli BL21(DE3), pGEX-5X-2 GST fusion, GST cut off with thrombin; monomer
As to the kind of experiment: isothermal titration calorimetry. The assay is classed as binding. (In general: Isothermal titration calorimetry measures the heat released or taken up as one component is titrated into another.)

By Kd is commonly meant the concentration at which binding is half-saturated. Consider `O=C(Nc1nn(Cc2ccc(C(F)(F)F)cc2)c2ccccc12)c1ccco1` [G2], for which the Kd entry (50 mM Hepes pH 7.5, 150 mM NaCl, 25 °C, proposed site 2) is “Kd values of G2 to WT fascin-1 and seven fascin-1 mutant proteins”.
As to `Cc1ccc2nc(-c3ccc(NCCOCCOCCOCCOCCOCCO)cc3)sc2c1` [BTA-EG6], the Kd (read-out: Kd) was approximately 5 µM.
